Data published in PMC12920294, “Optimizing uPAR-targeting radiopeptides for improved tissue distribution: progress towards radionuclide therapy” (European Journal of Nuclear Medicine and Molecular Imaging, 2025).

Key:
mouse serum albumin = target: T1, mouse serum albumin (Mus musculus, UniProt P07724); assay type: in vitro ADME
T1 construct: tissue Rockland Immunochemicals Inc., USA Lot: 32321; host or cells: mouse blood plasma
Method: (§1) The albumin-binding properties of the radiopeptides in mouse and human blood plasma were determined using an ultrafiltration assay with Amicon centrifugal filters (cut-off of 10 kDa; Merck Millipore) as previously reported (Supplementary Material). A fixed amount of the respective radiopeptide (~ 300 kBq, 15 µL, 6 pmol) was added to a defined volume (150 µL) of mouse and human blood plasma dilutions to obtain [mouse serum albumin]-to-[radiopeptide] molar concentration ratios of 0.01‒12,500 and [human serum albumin]-to-[radiopeptide] molar concentration ratios of 0.01‒20,000. The data were analyzed using a semi-logarithmic Hill plot with the maximum binding set as 100% using GraphPad Prism software (version 10.1.1). The half-maximum binding (B50 values) of each radiopeptide was expressed as relative values using the inverse ratios with the value of [^177Lu]Lu-uPAR-11 set as 1.0. […] The samples were incubated at 37 °C for 30 min. Ice-cold PBS (150 µL, pH 7.4) was added before loading the blood plasma samples on Amicon centrifugal filters (cut-off of 10 kDa; Merck Millipore) followed by centrifugation (14000 rcf, 4 °C, 30 min) to allow the separation of the plasma protein-bound from the unbound (free) fractions of each sample. The inserts of the filter devices were inverted and centrifuged at 200 rcf for 3 min to recover the protein-bound radiopeptide. The activity of the protein-bound fraction was measured using a γ-counter (Wallac Wizard 1480, PerkinElmer). The activity in the filtrate and filter unit was counted in the γ-counter and the counts were combined, assuming that the fraction retained in the filter membrane was not bound to proteins. The protein-bound fraction was expressed as percentage of the whole activity (i.e. plasma protein-bound activity, activity measured in the filtrate and activity measured in the filter (set as 100%)). The data were analyzed using a semi-logarithmic plot assuming a maximum binding of 100%. The Hill equation was fitted to the data points, and the half-maximum binding (B50) was determined based on the obtained binding curves using GraphPad Prism software (version 10.1.1). To quantitatively express and compare the albumin-binding properties of the radiopeptides, the relative albumin-binding affinity was expressed as the inverse half-maximal-binding (B50) of the respective radioligand to that of [^177Lu]Lu-uPAR-11, which was set as 1.0. The results were presented as the value obtained from the average curve from 3 independent experiments.

human uPAR = target: T2, human uPAR (Homo sapiens, UniProt Q03405); assay: uPAR-binding affinity, saturation binding on HEK-uPAR cells; conditions: 4 °C
T2 construct: host or cells: HEK cells transfected with human uPAR (HEK-uPAR)
T2 sequence (Q03405 23-335): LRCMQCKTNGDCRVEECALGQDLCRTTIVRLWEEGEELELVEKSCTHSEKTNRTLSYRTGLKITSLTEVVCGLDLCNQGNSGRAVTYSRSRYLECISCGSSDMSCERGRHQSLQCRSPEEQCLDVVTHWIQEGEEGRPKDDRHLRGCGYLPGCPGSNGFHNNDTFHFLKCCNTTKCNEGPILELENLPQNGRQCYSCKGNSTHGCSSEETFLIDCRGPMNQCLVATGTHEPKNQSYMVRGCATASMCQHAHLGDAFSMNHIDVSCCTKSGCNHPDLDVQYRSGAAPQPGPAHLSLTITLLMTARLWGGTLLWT
Method: To determine the uPAR-binding affinity of the radiopeptides, saturation binding experiments were performed according to a previously published procedure using HEK-uPAR cells in 48-well plates (Supplementary Material). The assay was performed on ice (at 4 °C) to prevent target internalization upon binding of the radiopeptides. The cells were incubated with the radiopeptides in the presence or absence of excess AE105 (40 µM) together with the respective radiopeptides at concentrations ranging between 1 nM and 1600 nM. After removal of the supernatant, the HEK-uPAR cells were rinsed and lysed to be measured using a γ-counter (Wallac Wizard 1480, PerkinElmer). The KD values were determined by plotting the specific binding (values of cell samples incubated without AE105 minus the respective values of samples incubated with AE105) against the molar concentration of the added peptide. A nonlinear regression analysis was performed using GraphPad Prism software (version 10.1.1). The results are reported as average of KD values ± SD of n = 3 independent experiments. Methods: HEK-uPAR cells were seeded in poly-D-lysine-coated 48-well plates (0.25 × 10^6 in 0.5 mL per well) using DMEM culture medium with supplements. The cells were incubated at 37 °C and 5% CO2 overnight to allow adhesion and growth. The well plates with HEK-uPAR cells were placed on ice for the entire experiment to prevent internalization of the radiopeptides. After removal of the medium, the HEK-uPAR cells were rinsed with cold PBS (0.5 mL, pH 7.4) followed by the addition of DMEM culture medium without supplements (450 µL/well) in the presence or absence of AE105 (final concentration 40 µM) as a receptor blocking agent. The cells were incubated for 30 min on ice. The respective radiopeptides (5 MBq/nmol) were diluted in PBS at peptide concentrations 10‒16000 nM. A volume of 50 µL from each dilution was added to each well to obtain peptide concentrations in the range of […]. The assay was performed at 4 °C on ice, to prevent internalization of the radiopeptides. The radiopeptides were incubated on cells for 1 h on a shaker before rinsing twice with PBS (0.5 mL, pH 7.4). Increasing ligand concentrations were used to approximate saturation of the binding sites (Bmax value) at equilibrium. Ligand depletion effects of the ligand concentration in the supernatant of the cell samples were not taken into account. The cells were lysed using an aqueous NaOH solution (1 M, 600 µL) and the lysates were transferred to radioimmunoassay tubes for counting the activity in a γ-counter (Wallac Wizard 1480, PerkinElmer). The KD values were determined by plotting the specific binding (total binding minus unspecific binding) against the molar concentration of the added radiopeptide using GraphPad Prism software (version 10.1.1). The results were then expressed as average ± SD of n = 3 independent experiments.

[1] = tested on: HEK-uPAR xenograft-bearing mice; conditions: mouse, in vivo
in vivo = conditions: CD1 nude, mouse, 0.5 nmol/mouse, total radioactivity
human serum albumin = human serum albumin (Homo sapiens, UniProt P02768); assay type: in vitro ADME; design: tissue Stiftung Blutspende SRK Aargau-Solothurn, Switzerland; host or cells: human blood plasma
Sequence of human serum albumin (P02768 25-609): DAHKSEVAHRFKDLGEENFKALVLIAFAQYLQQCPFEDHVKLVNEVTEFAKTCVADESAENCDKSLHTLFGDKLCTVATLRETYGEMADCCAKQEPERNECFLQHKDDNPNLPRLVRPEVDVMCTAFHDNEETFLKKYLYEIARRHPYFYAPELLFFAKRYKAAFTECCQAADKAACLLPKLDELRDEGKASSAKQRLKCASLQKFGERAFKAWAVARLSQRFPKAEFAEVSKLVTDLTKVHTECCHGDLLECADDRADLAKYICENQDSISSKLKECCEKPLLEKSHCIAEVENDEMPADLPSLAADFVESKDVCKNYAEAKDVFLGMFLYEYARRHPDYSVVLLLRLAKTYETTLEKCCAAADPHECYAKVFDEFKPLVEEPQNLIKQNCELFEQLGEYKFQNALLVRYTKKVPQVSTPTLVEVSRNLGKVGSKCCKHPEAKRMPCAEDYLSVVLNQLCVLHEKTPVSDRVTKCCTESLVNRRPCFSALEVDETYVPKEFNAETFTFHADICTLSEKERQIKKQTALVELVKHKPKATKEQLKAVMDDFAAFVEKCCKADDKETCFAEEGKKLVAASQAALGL
Method: as §1

T1 sequence (P07724 25-608): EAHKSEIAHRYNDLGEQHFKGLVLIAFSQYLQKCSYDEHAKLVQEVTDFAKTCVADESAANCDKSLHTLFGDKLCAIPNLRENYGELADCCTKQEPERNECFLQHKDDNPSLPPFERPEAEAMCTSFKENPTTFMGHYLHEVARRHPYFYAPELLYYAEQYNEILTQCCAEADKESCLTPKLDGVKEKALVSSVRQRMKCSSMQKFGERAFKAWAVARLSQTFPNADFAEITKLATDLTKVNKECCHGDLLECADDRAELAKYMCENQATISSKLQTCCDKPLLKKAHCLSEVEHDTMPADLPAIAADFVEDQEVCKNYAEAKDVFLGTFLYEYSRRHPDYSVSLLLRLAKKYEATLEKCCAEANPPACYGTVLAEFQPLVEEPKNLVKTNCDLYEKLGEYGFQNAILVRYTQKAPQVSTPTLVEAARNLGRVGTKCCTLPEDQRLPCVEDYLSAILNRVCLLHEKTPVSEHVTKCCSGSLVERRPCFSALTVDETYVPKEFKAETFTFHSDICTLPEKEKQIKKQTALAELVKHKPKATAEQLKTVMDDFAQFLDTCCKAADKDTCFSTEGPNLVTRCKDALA

| Structure (SMILES) | Kd (human uPAR) [nM] | Xgrft-to-liver ratio [1] | tissue uptake at 4 h (in vivo; Blood uptake) [%ID/g] | tissue uptake at 24 h (in vivo; Blood uptake) [%ID/g] | tissue uptake at 4 h (in vivo; Bone uptake) [%ID/g] | tissue uptake at 24 h (in vivo; Bone uptake) [%ID/g] | tissue uptake at 4 h (in vivo; Brain uptake) [%ID/g] | tissue uptake at 24 h (in vivo; Brain uptake) [%ID/g] | tissue uptake at 4 h (in vivo; HEK-uPAR xenograft uptake) [%ID/g] | tissue uptake at 24 h (in vivo; HEK-uPAR xenograft uptake) [%ID/g] | tissue uptake at 4 h (in vivo; Heart uptake) [%ID/g] | tissue uptake at 24 h (in vivo; Heart uptake) [%ID/g] | tissue uptake at 4 h (in vivo; Intestines uptake) [%ID/g] | tissue uptake at 24 h (in vivo; Intestines uptake) [%ID/g] | tissue uptake at 4 h (in vivo; Kidneys uptake) [%ID/g] | tissue uptake at 24 h (in vivo; Kidneys uptake) [%ID/g] | tissue uptake at 4 h (in vivo; Liver uptake) [%ID/g] | tissue uptake at 24 h (in vivo; Liver uptake) [%ID/g] | tissue uptake at 4 h (in vivo; Lung uptake) [%ID/g] | tissue uptake at 24 h (in vivo; Lung uptake) [%ID/g] | also measured |
| --- | --- | --- | --- | --- | --- | --- | --- | --- | --- | --- | --- | --- | --- | --- | --- | --- | --- | --- | --- | --- | --- |
| Cc1ccc(CCCC(=O)NCCOCCOCCOCCOCCC(=O)NC[C@H](NC(=O)CN2CCN(CC(=O)O)CCN(CC(=O)O)CCN(CC(=O)O)CC2)C(=O)N[C@@H](CC(=O)O)C(=O)N[C@@H](CC2CCCCC2)C(=O)N[C@@H](Cc2ccccc2)C(=O)N[C@H](CO)C(=O)N[C@H](CCCNC(=N)N)C(=O)N[C@@H](Cc2ccc(O)cc2)C(=O)N[C@@H](CC(C)C)C(=O)N[C@@H](Cc2c[nH]c3ccccc23)C(=O)N[C@@H](CO)C(N)=O)cc1 [[^177Lu]Lu-uPAR-14, metal not drawn] | 37 ± 7 | 7.4 ± 1.0 | 4.5 ± 0.2 | 0.06 ± 0.01 | 0.66 ± 0.09 | 0.19 ± 0.03 | 0.1 ± 0.01 | < 0.03 | 9 ± 0.5 | 3.4 ± 0.3 | 1.7 ± 0.1 | 0.15 ± 0.01 | 0.81 ± 0.04 | 0.21 ± 0.03 | 4 ± 0.3 | 2 ± 0.3 | 2 ± 0.2 | 0.47 ± 0.05 | 3 ± 0.6 | 0.3 ± 0.02 | Albumin-binding affinity relative to [177Lu]Lu-uPAR-11 (mouse serum albumin): 0.50‒0.77; Albumin-binding properties, relative values (inverse B50 ratio) (mouse serum albumin): 0.66; tissue uptake at 4 h (in vivo; Muscle uptake): 0.51 ± 0.02 %ID/g; tissue uptake at 24 h (in vivo; Muscle uptake): 0.05 ± 0.01 %ID/g; tissue uptake at 4 h (in vivo; Pancreas uptake): 0.68 ± 0.03 %ID/g; tissue uptake at 24 h (in vivo; Pancreas uptake): 0.12 ± 0.01 %ID/g; tissue uptake at 4 h (in vivo; Salivary glands uptake): 1.1 ± 0.1 %ID/g; tissue uptake at 24 h (in vivo; Salivary glands uptake): 0.26 ± 0.03 %ID/g; tissue uptake at 4 h (in vivo; Spleen uptake): 0.99 ± 0.08 %ID/g; tissue uptake at 24 h (in vivo; Spleen uptake): 0.54 ± 0.11 %ID/g; tissue uptake at 4 h (in vivo; Stomach uptake): 0.69 ± 0.13 %ID/g; tissue uptake at 24 h (in vivo; Stomach uptake): 0.16 ± 0.03 %ID/g; Inverse relative albumin-binding affinity (human serum albumin): 0.50 |
| Cc1ccc(CCCC(=O)NCCCCCCCC(=O)NCCCC[C@H](NC(=O)CN2CCN(CC(=O)O)CCN(CC(=O)O)CCN(CC(=O)O)CC2)C(=O)N[C@@H](CC(=O)O)C(=O)N[C@@H](CC2CCCCC2)C(=O)N[C@@H](Cc2ccccc2)C(=O)N[C@H](CO)C(=O)N[C@H](CCCNC(=N)N)C(=O)N[C@@H](Cc2ccc(O)cc2)C(=O)N[C@@H](CC(C)C)C(=O)N[C@@H](Cc2c[nH]c3ccccc23)C(=O)N[C@@H](CO)C(N)=O)cc1 [[^177Lu]Lu-uPAR-12, metal not drawn] | 38 ± 9 | 1.3 ± 0.1 | 12 ± 1 | 3.4 ± 1 | 1.4 ± 0.1 | 0.78 ± 0.15 | 0.24 ± 0.01 | 0.1 ± 0.03 | 6 ± 0.2 | 5.7 ± 0.7 | 4 ± 0.3 | 1.6 ± 0.2 | 1.5 ± 0.1 | 0.76 ± 0.12 | 3.9 ± 0.1 | 4.3 ± 0.3 | 5.3 ± 0.3 | 4.2 ± 0.3 | 7.2 ± 1.3 | 2.6 ± 0.6 | tissue uptake at 4 h (in vivo; Muscle uptake): 1.2 ± 0.1 %ID/g; tissue uptake at 24 h (in vivo; Muscle uptake): 0.6 ± 0.22 %ID/g; tissue uptake at 4 h (in vivo; Pancreas uptake): 1.4 ± 0.2 %ID/g; tissue uptake at 24 h (in vivo; Pancreas uptake): 0.79 ± 0.24 %ID/g; tissue uptake at 4 h (in vivo; Salivary glands uptake): 2.7 ± 0.2 %ID/g; tissue uptake at 24 h (in vivo; Salivary glands uptake): 1.4 ± 0.2 %ID/g; tissue uptake at 4 h (in vivo; Spleen uptake): 1.9 ± 0.1 %ID/g; tissue uptake at 24 h (in vivo; Spleen uptake): 2 ± 0.6 %ID/g; tissue uptake at 4 h (in vivo; Stomach uptake): 1.4 ± 0.1 %ID/g; tissue uptake at 24 h (in vivo; Stomach uptake): 0.52 ± 0.16 %ID/g |
